# Data published in US7544666B2, “NAP derivatives” (Industrial Technology Research Institute, priority 2005, dated 2009).
# Key:
# [1] = Stability in Hanks' balanced salt solution (HBSS); format: physicochemical; settings: 37° C., relative to initial conc. in HBSS = 100.00
# How it was run: (§1)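 Compounds at 500 μM initial concentration were incubated 4 h at 37 °C in HBSS alone or on the apical side of Caco-2 monolayers (cultured 18–26 days, TEER over 350 Ω×cm^2). Apical and basolateral levels were quantified by reverse-phase HPLC at 210 nm against the initial concentration.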
# PC12 cells = assay: Neural protection in H2O2/PC12 cell system (MTT); format: cell-based; settings: 500 μM H2O2-induced PC12 cytotoxicity
# Procedure: The neural protection of NAP and the NAP derivatives prepared in EXAMPLE 1 were measured by H2O2/PC12 cell system. PC12 cells (4×10^4 cells) were seeded into a 96-well plate and incubated for 24 hours. NAP and the NAP derivatives prepared in EXAMPLE 1 at different concentration were added into the plate and incubated at 37° C. for 4 hours. Hydrogen peroxide with a concentration of 500 μM was then added to induce cytotoxicity. After 24 hours, supernatants were discarded and MTT [3-(4,5-dimethylthiazol-2-yl)-2,5-diphenyltetrazolium bromide] solution (0.5 mg/ml) was added for 4-hour reaction at 37° C. One hundred and fifty μl of DMSO was added to solve formazan product. Absorbance was measured by Microplate Reader at 570 nm, and cell viability was calculated. […] FIGS. 3 to 8 show the cell protection of the NAP derivatives from H2O2-induced PC12 cytotoxicity.
# [2] = tested on: scopolamine-induced amnesia rats; assay: Morris water maze in scopolamine-induced amnesia rats; format: in vivo, rat; settings: 0.25 mg/kg subcutaneous, 5 min after scopolamine 1 mg/kg i.p.; FIG. 11
# Procedure: Scopolamine-induced amnesia […] were used in combination of Morris water maze, a memory and behavior analysis system, to assess the in vivo effects of the NAP derivative BMEC-NAP0701 and NAP.
# Sprague-Dawley male rats with body weight of 220-250 g obtained from the National Laboratory Animal Center, Taiwan, were caged in an air-conditioned housing with a temperature of 23±1° C. and kept on an alternating 12-hour light and 12-hour dark schedule with sufficient feed and water. […]
# Morris Water Maze was performed with a water maze device containing a stainless pool with a size of 160 cm in diameter, 50 cm in height, and 15 mm in thickness of the wall and a platform with a size of 11 cm in diameter, and 22 cm in height. […] The swimming time and track were recorded by VEDEOMEX-V video tracing system, video recorder, and monitor (Columbus Instruments) and analyzed by Water Maze Program (Columbus Instruments). […]
# Late of the third day: Two to four hours after the third day training, the platform was removed from the pool. The trained rats were separately sent to quadrant I and the swimming track was recorded for 60 sec. The time spent in finding the original platform was also recorded. […]
# Early of the fifth day: The platform was placed in the quadrant II and submerged beneath water level about 1 cm. The rats were separately sent to quadrant I and the time spent in finding the platform was recorded. […]
# Caco-2 cell = assay: Stability in the Caco-2 cell system; format: in vitro ADME, human; settings: 4-hour incubation in Caco-2 Transwell; relative to initial conc. = 100.00 (500 μM)
# How it was run: as §1
compound,measurement,setting,value
"CC[C@H](C)[C@H](NC(=O)[C@H](CO)NC(=O)[C@@H](NC(=O)[C@@H]1CCCN1C(=O)[C@H](C)NC(=O)[C@@H](N)CC(N)=O)C(C)C)C(=O)N1CCC[C@H]1C(=O)N[C@@H](CCC(N)=O)C(=O)O [BMEC-NAP, H-NAPVSIPQ-OH, reference compound]",Conc. after 4-hour in HBSS,[1],99.21
same,concentration level at which cell viability was increased,PC12 cells,picomolar (i.e. 10^−12) level
same,concentration level of cell protection effect,PC12 cells; 4 h pre-incubation,femtomolar (i.e. 10^−15) level
same,memory improving effect (time spent in finding the platform vs scopolamine-induced rats),[2],memory improving effect in vivo
same,Conc. after 4-hour in Caco-2 cells,Caco-2 cell,42.49
